Measurements taken from patent US10330670B2, “Therapeutic or prophylactic agent for retinopathy of prematurity, testing method for retinopathy of prematurity, and screening method for therapeutic or prophylactic substance for retinopathy of prematurity” (TOKYO UNIVERSITY OF AGRICULTURE AND TECHNOLOGY, priority 2012, dated 2019).
Entries after “also recorded” stand apart in the source; their conditions may differ.

Tests used:
[1] = tested on: retinal neovascularization; experiment: Influence of nafamostat mesilate (NM) on retinal neovascularization in ROP model mice; assay type: in vivo; details: 1 mg/kg intraperitoneally every day P12-P17
Method: For the ROP models, the BMCMC-injected W^sh/W^sh mice produced in Reference Example 2 (administered by an amount of 1×10^6 cells/20 μL) were used, and W^sh/W^sh mice to which saline was administered by the same volume were used as the control group. The oxygen concentration for the period P0-P17 was replaced by the same schedule as Example 1 (see FIG. 7). 1 mg/kg/20 μl NM dissolved in saline or saline was injected to the mice intraperitoneally in the period P12-P17 every day. On P17, the mice were slaughtered and eyes are collected, and evaluation of neovascularization was performed in the similar manner as Example 1. The results are illustrated in FIG. 8. In FIG. 8 the sign “*” denotes P<0.05 (compared with the number of nuclei of the endothelial cells of the vessels of the control mice).

[2] = tested on: human mast cell strain HMC-1; experiment: Degranulation of mast cells induced by variation of oxygen concentration, β-hexosaminidase release; assay type: cell-based; details: 75% O2 24 hours then 20% O2 12 hours, p<0.05
Source text: It has been known that human mast cell strain HMC-1 is a cell strain derived from leukemia, that it has a characteristic as a mast cell, and that it includes β-hexosaminidase in its granules. With reference to a previous report (European Journal of Immunology, Vol. 29, 2645-2649 (1999)), HMC-1 cells were suspended in an α-MEM culture medium to which 10% (v/v) fetal calf serum and a usual dose of antibiotic had been added for preparation of a mast cell suspension with a cell concentration of 5×10^5 cells/ml. Throughout the test period including the period in the high oxygen concentration environment, all the cells were subjected to an environment of 5% (v/v) CO2, 37° C. as the cultivation condition other than the oxygen concentration.
The mast cell suspension was dispensed on a 96-well plate at 4×10^5 cells/well. Cromolyn and each of the seven candidate substances were added to obtain the following concentrations. As controls (media) to which the agent was not added and as non-treated examples to which the marker substance release induction process was not carried out, wells to which neither cromolyn nor the candidate substances was added were set.
The marker substance (β-hexosaminidase) release induction process and the step for contact with the mast cells HMC-1 that had been subjected to the marker substance release induction process were performed by retaining the 96-well plate in the high oxygen concentration environment (75 v/v % oxygen) for 24 hours and in the normal oxygen environment (20 v/v % oxygen) for 12 hours. For the non-treated example, the 96-well plate was retained in the normal oxygen environment (20 v/v % oxygen) for 24 hours and further retained in the normal oxygen environment for 12 hours.
The detection and measurement of the marker substance (β-hexosaminidase) that had been released by degranulation of the mast cells in the contacting step were carried out by a previously reported method (Eur. J. Immunol. 19 (1989) 2251-2256). To put it briefly, the step was carried out in the following manner. After having collecting the supernatant from the respective wells after the contacting step, the pellets (cells) were dissolved in a 0.5% triton X-100-containing α-minimal essential medium (α-MEM: a product of Gibco) at the same volume. In the respective wells of the 96-well plate, 5 μl supernatant or cell lysates were mixed with a 50 μl substrate solution (1.3 mg/ml p-nitrophenyl-N-acetyl-β-D-glucosamine;
pH 4.5 in 100 mM sodium citrate). After incubation at 37° C. for 60 minutes, 150 μl, 200 mM solution of glycine (pH 10.7) was added, and the reaction was stopped. The absorbance was measured at 414 nm. The (%) of the released marker substance (β-hexosaminidase) was calculated according to the following expression; OD(supernatant)/(OD(supernatant).+OD(pellet))×100.
The test was performed by three-sample test, an average and standard deviation were calculated on the basis of the measurement results for statistic analysis by ANOVA+ Tukey's test.

[3] = tested on: retinal neovascularization; experiment: Influence of cromolyn on retinal neovascularization in oxygen-induced ROP model mice; assay type: in vivo; details: eyes on P17
Source text: As have been reported before (Invest. Ophthalmol. Vis. Sci., 35, 101-111 (1994), etc.), for the +/+ mice, +/W^sh mice, and W^sh/W^sh mice, respectively, neonatal mice were placed in a closed chamber containing 75 v/v % O2 together with their mother for lactation on P7, and this state was maintained for 5 days (P7-P12). Subsequently, this state was continued for further 5 days (P12-P17) in the normal oxygen environment (21 v/v % O2) for induction of oxygen-induced retinopathy (OIR) for use as experimental ROP models. The control mice were raised in the normal oxygen environment (indoor environment, 25° C., 21 v/v % O2. The same applies for the description of Examples.) throughout the test period. Note that the symbol “P”, which refers to a date, herein denotes that the date is a postnatal date, and “P7”, for example, refers to a 7th postnatal date. On P17, eyes were collected from the mice with ROP, fixed with Davidson's fixative overnight, and then embedded with paraffin. Paraffin-embedded serial sections axially sectioned at 6 μm were obtained, stained with HE, images were taken at the magnification 20, and the number of nuclei of the endothelial cells on the side of the vitreous body of the internal limiting membrane was counted. In the immunohistochemical test, the sections were subjected to incubation at 4° C. overnight together with anti-PECAM-1 antibody (a product of Santa Cruz Biotechnology, Inc.) having been diluted at 1:100 (in capacity ratio). To examine an influence in various states of different oxygen concentration, mice for use in the tests were raised in a period from P0 to P17 according to the schedule in which the normal oxygen environment was used in the period P0-P7 (21 v/v % oxygen), the high oxygen concentration environment in the period P7-P12 (75 v/v % oxygen), and the normal oxygen environment in the period P12-P17. On P7 and P12, the oxygen concentration environment was replaced. The neonatal mice of +/+ mice and the W^sh/W^sh mice were divided into three groups, and cromolyn (a product of Sigma Aldrich Corporation) dissolved in phosphate buffered saline (PBS) was injected to the mice at the concentration of 50 mg/kg/20 μL intraperitoneally every day. PBS was administered to the control group at the same volume. Administration methods of the agent for the respective groups were as illustrated in FIG. 5. Specifically, for the first group, cromolyn was administered to the neonatal mice from P6 to P16. […] Subsequently, similarly to Reference Example 1, the number of nuclei of the endothelial cell was counted after staining the ocular sections by HE, and thereby influences of cromolyn on the retinal neovascularization in the +/+ and W^sh/W^sh neonatal mice was evaluated in the similar manner as Reference Example 1.

N=C(N)c1ccc2cc(OC(=O)c3ccc(N=C(N)N)cc3)ccc2c1 [NM, nafamostat mesilate]
retinal neovascularization (neovascular nuclei) ([1]; +/+ mice with induced ROP): inhibited retinal neovascularization
retinal neovascularization (neovascular nuclei) ([1]; BMCMC-injected W^sh/W^sh mice with induced ROP): inhibited retinal neovascularization

CC(C)c1ccc2oc3nc(N)c(C(=O)O)cc3c(=O)c2c1 [amlexanox]
degranulation (ratio of released β-hexosaminidase) compared with controls (media) ([2]; 1 μM amlexanox): inhibited the degranulation

O=C(O)c1cc(=O)c2c(OCC(O)COc3cccc4oc(C(=O)O)cc(=O)c34)cccc2o1 [cromolyn, cromoglycic acid]
retinal neovascularization (number of nuclei of the endothelial cell, HE-stained ocular sections) ([3]; +/+ mice, first group: 50 mg/kg intraperitoneally every day P6-P16): a level as low as that in the W^sh/W^sh mice; also recorded: decreased pathological neovascularization
retinal neovascularization (number of nuclei of the endothelial cell, HE-stained ocular sections) ([3]; +/+ mice, third group: 50 mg/kg intraperitoneally every day P11-P16): a level as low as that in the W^sh/W^sh mice; also recorded: significantly small; also recorded: less than those in the W^sh/W^sh mice
retinal neovascularization (number of nuclei of the endothelial cell, HE-stained ocular sections) ([3]; second group: 50 mg/kg intraperitoneally every day P6-P11 (high oxygen period)): did not influence; also recorded: no effect of inhibition
retinal neovascularization (number of nuclei of the endothelial cell, HE-stained ocular sections) ([3]; second group: 50 mg/kg intraperitoneally every day P6-P11 (high oxygen period), listed as Cromolyn): did not influence
degranulation (ratio of released β-hexosaminidase) compared with controls (media) ([2]; 10 ng/ml): inhibited the degranulation

NC1=NCC2c3ccccc3Cc3ccccc3N12 (stereo not drawn) [epinastine]
degranulation (ratio of released β-hexosaminidase) compared with controls (media) ([2]; 1 ng/ml): inhibited the degranulation

C[C@@H]1CN([C@H]2CC[C@](C#N)(c3ccc(F)cc3)CC2)CC[C@]1(C(=O)O)c1ccccc1 [levocabastine]
degranulation (ratio of released β-hexosaminidase) compared with controls (media) ([2]; 10 nM levocabastine): inhibited the degranulation

Cc1cccn2c(=O)c(-c3nnn[nH]3)cnc12 [pemirolast]
degranulation (ratio of released β-hexosaminidase) compared with controls (media) ([2]; 10 nM pemirolast): inhibited the degranulation

CCOCC(O)COc1ccc(NC(=O)CC[S+](C)C)cc1 (stereo not drawn) [suplatast]
degranulation (ratio of released β-hexosaminidase) compared with controls (media) ([2]; 10 μM suplatast): inhibited the degranulation
